According to the supplement of paper PMC10307832:

Columns and labels:
Assay in all cases: relative viability (nuclei count vs DMSO), 5 days (fraction); higher = more cells survive
[1] = compound: C1/C(=C\C2=CC=CS2)/C(=O)/C(=C/C3=CC=CS3)/C1 + O=C(CCCCCCC(=O)Nc1ccccc1)NO [Vorinostat] (partner 1 µM)
Method in brief: (§1)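 Lung cancer cell lines in 1536-well plates got either a single drug or a fixed anchor-drug dose together with five library-drug doses (not always all listed) in √10 steps, by pin tool, on the day after seeding. Nuclei were counted after 5 days, and relative viability is the treated-to-vehicle ratio of nuclei counts. Values are medians of duplicate plates.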

Lestaurtinib + Olaparib = compound: C[C@]12O[C@H](C[C@]1(O)CO)n1c3ccccc3c3c4c(c5c6ccccc6n2c5c31)CNC4=O [Lestaurtinib] + O=C(c1cc(Cc2n[nH]c(=O)c3ccccc23)ccc1F)N1CCN(C(=O)C2CC2)CC1 [Olaparib] (partner 8 µM)
Method in brief: as §1

[2] = compound: C1/C(=C\C2=CC=CS2)/C(=O)/C(=C/C3=CC=CS3)/C1 + C[C@@H](Oc1cc(-c2cnn(C3CCNCC3)c2)cnc1N)c1c(Cl)ccc(F)c1Cl [Crizotinib] (partner 1 µM)
Method in brief: as §1

[3] = compound: C[C@]12O[C@H](C[C@]1(O)CO)n1c3ccccc3c3c4c(c5c6ccccc6n2c5c31)CNC4=O [Lestaurtinib] + CC1(C)CCC(c2ccc(Cl)cc2)=C(CN2CCN(c3ccc(C(=O)NS(=O)(=O)c4ccc(N[C@H](CCN5CCOCC5)CSc5ccccc5)c(S(=O)(=O)C(F)(F)F)c4)cc3)CC2)C1 [Navitoclax] (partner 0.5 µM)
Method in brief: as §1

SW 900
relative viability ([1]; first compound 0.2 µM): 0.525 | relative viability ([1]; first compound 0.6325 µM): 0.485 | relative viability ([1]; first compound 2 µM): 0.569 | relative viability ([1]; first compound 6.325 µM): 0.59 | relative viability ([1]; first compound 20 µM): 0.558 | relative viability (Lestaurtinib + Olaparib; first compound 0.005 µM): 0.92 | relative viability (Lestaurtinib + Olaparib; first compound 0.01581 µM): 1.12 | relative viability (Lestaurtinib + Olaparib; first compound 0.05 µM): 0.958 | relative viability (Lestaurtinib + Olaparib; first compound 0.1581 µM): 1.34 | relative viability (Lestaurtinib + Olaparib; first compound 0.5 µM): 1.07

NCI-H1944
relative viability ([2]; first compound 0.2 µM): 1.18 | relative viability ([2]; first compound 0.6325 µM): 1.12 | relative viability ([2]; first compound 2 µM): 1.09 | relative viability ([2]; first compound 6.325 µM): 1.01 | relative viability ([2]; first compound 20 µM): 0.977 | relative viability ([1]; first compound 0.2 µM): 0.619 | relative viability ([1]; first compound 0.6325 µM): 0.535 | relative viability ([1]; first compound 2 µM): 0.559 | relative viability ([1]; first compound 20 µM): 0.528 | relative viability ([3]; first compound 0.005 µM): 1.12 | relative viability ([3]; first compound 0.01581 µM): 1.01 | relative viability ([3]; first compound 0.05 µM): 0.956 | relative viability ([3]; first compound 0.1581 µM): 0.673 | relative viability ([3]; first compound 0.5 µM): 0.638 | relative viability (Lestaurtinib + Olaparib; first compound 0.005 µM): 0.437 | relative viability (Lestaurtinib + Olaparib; first compound 0.01581 µM): 0.479 | relative viability (Lestaurtinib + Olaparib; first compound 0.05 µM): 0.34 | relative viability (Lestaurtinib + Olaparib; first compound 0.1581 µM): 0.419 | relative viability (Lestaurtinib + Olaparib; first compound 0.5 µM): 0.344

NCI-H727
relative viability ([2]; first compound 0.2 µM): 0.885 | relative viability ([2]; first compound 0.6325 µM): 0.779 | relative viability ([2]; first compound 2 µM): 0.755 | relative viability ([2]; first compound 6.325 µM): 0.745 | relative viability ([2]; first compound 20 µM): 0.762 | relative viability ([1]; first compound 0.2 µM): 1.23 | relative viability ([1]; first compound 0.6325 µM): 1.23 | relative viability ([1]; first compound 2 µM): 1.28 | relative viability ([1]; first compound 20 µM): 1.12 | relative viability ([3]; first compound 0.005 µM): 0.502 | relative viability ([3]; first compound 0.01581 µM): 0.478 | relative viability ([3]; first compound 0.05 µM): 0.489 | relative viability ([3]; first compound 0.1581 µM): 0.332 | relative viability ([3]; first compound 0.5 µM): 0.185 | relative viability (Lestaurtinib + Olaparib; first compound 0.005 µM): 0.812 | relative viability (Lestaurtinib + Olaparib; first compound 0.01581 µM): 0.604 | relative viability (Lestaurtinib + Olaparib; first compound 0.05 µM): 0.731 | relative viability (Lestaurtinib + Olaparib; first compound 0.5 µM): 0.678

NCI-H1650
relative viability ([2]; first compound 0.2 µM): 1.16 | relative viability ([2]; first compound 0.6325 µM): 1.02 | relative viability ([2]; first compound 2 µM): 1.14 | relative viability ([2]; first compound 6.325 µM): 0.605 | relative viability ([2]; first compound 20 µM): 0.923 | relative viability ([1]; first compound 0.2 µM): 0.49 | relative viability ([1]; first compound 0.6325 µM): 0.44 | relative viability ([1]; first compound 2 µM): 0.796 | relative viability ([1]; first compound 6.325 µM): 0.56 | relative viability ([1]; first compound 20 µM): 0.498 | relative viability ([3]; first compound 0.005 µM): 1.24 | relative viability ([3]; first compound 0.01581 µM): 1.37 | relative viability ([3]; first compound 0.05 µM): 1.31 | relative viability ([3]; first compound 0.1581 µM): 1.56 | relative viability ([3]; first compound 0.5 µM): 0.503 | relative viability (Lestaurtinib + Olaparib; first compound 0.005 µM): 0.596 | relative viability (Lestaurtinib + Olaparib; first compound 0.01581 µM): 0.79 | relative viability (Lestaurtinib + Olaparib; first compound 0.05 µM): 0.787 | relative viability (Lestaurtinib + Olaparib; first compound 0.1581 µM): 1.22 | relative viability (Lestaurtinib + Olaparib; first compound 0.5 µM): 0.631

HCC-827
relative viability ([2]; first compound 0.2 µM): 0.961 | relative viability ([2]; first compound 0.6325 µM): 0.898 | relative viability ([2]; first compound 2 µM): 0.949 | relative viability ([2]; first compound 6.325 µM): 0.635 | relative viability ([2]; first compound 20 µM): 0.978 | relative viability ([1]; first compound 0.2 µM): 0.999 | relative viability ([1]; first compound 0.6325 µM): 0.897 | relative viability ([1]; first compound 2 µM): 0.908 | relative viability ([1]; first compound 6.325 µM): 0.764 | relative viability ([1]; first compound 20 µM): 0.822 | relative viability ([3]; first compound 0.005 µM): 1.07 | relative viability ([3]; first compound 0.01581 µM): 1.01 | relative viability ([3]; first compound 0.05 µM): 0.98 | relative viability ([3]; first compound 0.1581 µM): 0.847 | relative viability ([3]; first compound 0.5 µM): 0.604 | relative viability (Lestaurtinib + Olaparib; first compound 0.005 µM): 0.585 | relative viability (Lestaurtinib + Olaparib; first compound 0.01581 µM): 0.654 | relative viability (Lestaurtinib + Olaparib; first compound 0.05 µM): 0.665 | relative viability (Lestaurtinib + Olaparib; first compound 0.1581 µM): 0.508 | relative viability (Lestaurtinib + Olaparib; first compound 0.5 µM): 0.484

HCC-366
relative viability ([2]; first compound 0.2 µM): 0.421 | relative viability ([2]; first compound 0.6325 µM): 0.651 | relative viability ([2]; first compound 2 µM): 0.525 | relative viability ([2]; first compound 6.325 µM): 0.451 | relative viability ([2]; first compound 20 µM): 0.513 | relative viability ([1]; first compound 0.2 µM): 0.41 | relative viability ([1]; first compound 0.6325 µM): 0.381 | relative viability ([1]; first compound 2 µM): 0.373 | relative viability ([1]; first compound 6.325 µM): 0.324 | relative viability ([1]; first compound 20 µM): 0.425 | relative viability ([3]; first compound 0.005 µM): 1.1 | relative viability ([3]; first compound 0.01581 µM): 1.11 | relative viability ([3]; first compound 0.05 µM): 0.977 | relative viability ([3]; first compound 0.1581 µM): 1.56 | relative viability ([3]; first compound 0.5 µM): 0.581 | relative viability (Lestaurtinib + Olaparib; first compound 0.005 µM): 0.375 | relative viability (Lestaurtinib + Olaparib; first compound 0.01581 µM): 0.338 | relative viability (Lestaurtinib + Olaparib; first compound 0.05 µM): 0.35 | relative viability (Lestaurtinib + Olaparib; first compound 0.1581 µM): 0.455 | relative viability (Lestaurtinib + Olaparib; first compound 0.5 µM): 0.254

HARA
relative viability ([2]; first compound 0.2 µM): 0.985 | relative viability ([2]; first compound 0.6325 µM): 1.05 | relative viability ([2]; first compound 2 µM): 1.03 | relative viability ([2]; first compound 6.325 µM): 0.758 | relative viability ([2]; first compound 20 µM): 1.03 | relative viability ([1]; first compound 0.2 µM): 0.722 | relative viability ([1]; first compound 0.6325 µM): 0.498 | relative viability ([1]; first compound 2 µM): 0.641 | relative viability ([1]; first compound 6.325 µM): 0.485 | relative viability ([1]; first compound 20 µM): 0.458 | relative viability ([3]; first compound 0.005 µM): 1.15 | relative viability ([3]; first compound 0.01581 µM): 1.18 | relative viability ([3]; first compound 0.05 µM): 1.21 | relative viability ([3]; first compound 0.1581 µM): 1.07 | relative viability ([3]; first compound 0.5 µM): 0.196 | relative viability (Lestaurtinib + Olaparib; first compound 0.005 µM): 1.03 | relative viability (Lestaurtinib + Olaparib; first compound 0.01581 µM): 0.899 | relative viability (Lestaurtinib + Olaparib; first compound 0.05 µM): 0.441 | relative viability (Lestaurtinib + Olaparib; first compound 0.1581 µM): 0.886 | relative viability (Lestaurtinib + Olaparib; first compound 0.5 µM): 0.237

NCI-H322M
relative viability ([2]; first compound 0.2 µM): 0.876 | relative viability ([2]; first compound 0.6325 µM): 1.03 | relative viability ([2]; first compound 2 µM): 0.98 | relative viability ([2]; first compound 6.325 µM): 0.743 | relative viability ([2]; first compound 20 µM): 0.922 | relative viability ([1]; first compound 0.2 µM): 0.902 | relative viability ([1]; first compound 0.6325 µM): 0.892 | relative viability ([1]; first compound 2 µM): 1.03 | relative viability ([1]; first compound 6.325 µM): 0.865 | relative viability ([1]; first compound 20 µM): 0.917 | relative viability ([3]; first compound 0.005 µM): 1.28 | relative viability ([3]; first compound 0.01581 µM): 0.977 | relative viability ([3]; first compound 0.05 µM): 0.563 | relative viability ([3]; first compound 0.1581 µM): 0.463 | relative viability ([3]; first compound 0.5 µM): 0.461 | relative viability (Lestaurtinib + Olaparib; first compound 0.005 µM): 0.823 | relative viability (Lestaurtinib + Olaparib; first compound 0.01581 µM): 0.622 | relative viability (Lestaurtinib + Olaparib; first compound 0.1581 µM): 0.765 | relative viability (Lestaurtinib + Olaparib; first compound 0.5 µM): 0.521
